The values that follow come from patent US11981666B2, “GLP-1 receptor agonist and composition and use thereof” (HANGZHOU ZHONGMEIHUADONG PHARMACEUTICAL CO., LTD., priority 2021, dated 2024).

The EC50 is the concentration at which the effect is half-maximal. Read a high EC50 as weaker potency. As a reminder, the half-life is the time in which the quantity being followed falls by half. A low value points to rapid decline.

The target in one series is T1, Human GLP-1R (Homo sapiens, UniProt P43220).
T1 construct: expressed in transfected cells
The series is described as follows: GLP-1R agonistic activity assay (HTRF cAMP, 293A GFP-GLP-1R cells). Format: cell-based. The conditions noted are these: cAMP level, geometric mean. The text has this: The method was a competitive immunoassay.
Background: In TR-FRET formats the signal depends on donor and acceptor labels being close together.

Series [1] in a line: Metabolic stability in (human) liver microsomes. Format: in vitro ADME. The conditions noted are these: pH 7.4, test concentration 1 μM.
Procedure: 3×NADPH stock solution (6 mM, 5 mg/mL) was prepared by dissolving NADPH in the buffer solution; 4. 30 μL of 1.5 μM additive solution containing 0.75 mg/mL microsomal solution was distributed to the plates designated for different time points (0, 5, 15, 30, 45 minutes); 5. at 0 min, 150 μL of ACN containing IS was added to the wells of the plate, followed by addition of 15 μL of NADPH stock solution (6 mM, step 3); 6. all other plates were pre-incubated at 37° C. for 5 minutes; 7. adding 15 μL of NADPH stock solution to the plate to start the reaction and timing; 8. 150 μL of ACN containing IS was added to the wells of the corresponding plates to stop the reaction at 5 min, 15 min, 30 min and 45 min, respectively; 9. after quenching, the plates were shaken on a shaker for 10 minutes (600 rpm/min) and then centrifuged at 6000 rpm for 15 minutes; 10. 80 μL of supernatant was transferred from each well to a 96-well sample plate containing 140 μL water for LC/MS analysis.
Detection method: LC-MS/MS-11 (8050), internal standard: tolbutamide; MS conditions: positive ion ESI for testosterone and test compound, and negative ion ESI for tolbutamide; Mobile phases: mobile phase A is 0.1% FA in water, and mobile phase B is 0.1% FA in ACN; Column and specification: ACQUITY UPLC HSS T3 1.8 um 2.1*50 mm.

T1 sequence (P43220 24-463): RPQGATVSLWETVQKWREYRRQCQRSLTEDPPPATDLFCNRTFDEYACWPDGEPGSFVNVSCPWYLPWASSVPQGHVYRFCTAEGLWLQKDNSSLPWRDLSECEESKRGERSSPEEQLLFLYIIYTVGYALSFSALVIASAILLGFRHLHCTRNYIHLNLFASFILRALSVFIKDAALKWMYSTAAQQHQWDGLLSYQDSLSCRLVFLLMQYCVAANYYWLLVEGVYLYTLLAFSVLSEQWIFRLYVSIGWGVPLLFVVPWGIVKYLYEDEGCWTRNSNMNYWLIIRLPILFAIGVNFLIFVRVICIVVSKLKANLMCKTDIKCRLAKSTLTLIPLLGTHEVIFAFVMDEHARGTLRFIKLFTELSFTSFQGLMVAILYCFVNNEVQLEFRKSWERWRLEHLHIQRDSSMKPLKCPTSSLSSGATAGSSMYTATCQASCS

Regarding `O=C(O)c1ccc2nc(CN3CCC4c5nc(OCc6ccc(C7COC7)cc6Cl)ccc5COCC4C3)n(CC3CCO3)c2c1` (single isomer, unassigned) [Compound 17-B], the EC50 at Human GLP-1R was 0.14 nM.
In the case of `O=C(O)c1ccc2nc(CN3CCC(c4cccc(OCc5ccc(C6COC6)cc5Cl)n4)CC3)n(C[C@@H]3CCO3)c2c1` [Compound 2, (S)-2-((4-(6-((2-chloro-4-(oxetan-3-yl)benzyl)oxy)pyridin-2-yl)piperidin-1-yl)methyl)-1-(oxetan-2-ylmethyl)-1H-benzo[d]imidazole-6-carboxylic acid], the half-life at 1 μM in series [1] is 2.06 h. At Human GLP-1R, this compound returned an EC50 of 0.07 nM.
At Human GLP-1R, `O=C(O)c1ccc2nc(CN3CCC(c4cccc(OCc5ccc(C6COC6)cc5C(F)F)n4)CC3)n(C[C@@H]3CCO3)c2c1` [Compound 18, (S)-2-((4-(6-((2-(difluoromethyl)-4-(oxetan-3-yl)benzyl)oxy)pyridin-2-yl)piperidin-1-yl)methyl)-1-(oxetan-2-ylmethyl)-1H-benzo[d]imidazole-6-carboxylic acid] showed an EC50 of 0.85 nM.
`O=C(O)c1ccc2nc(CN3CCC(c4cccc(OCc5ccc(C6COC6)cc5F)n4)CC3)n(CC3(CF)CC3)c2c1` [Compound 5, 2-((4-(6-((2-fluoro-4-(oxetan-3-yl)benzyl)oxy)pyridin-2-yl)piperidin-1-yl)methyl)-1-((1-(fluoromethyl)cyclopropyl)methyl)-1H-benzo[d]imidazole-6-carboxylic acid]: the EC50 on Human GLP-1R amounted to 0.003 nM.
On to `O=C(O)c1ccc2nc(Cc3ccc(-c4cccc(OCc5ccc(C6COC6)cc5F)n4)cc3F)n(CC3(CF)CC3)c2c1` [Compound 10, 2-(2-fluoro-4-(6-((2-fluoro-4-(oxetan-3-yl)benzyl)oxy)pyridin-2-yl)benzyl)-1-((1-(fluoromethyl)cyclopropyl)methyl)-1H-benzo[d]imidazole-6-carboxylic acid], for which the midpoint of the response on Human GLP-1R, the EC50, lay at 0.03 nM.
With `O=C(O)c1ccc2nc(CN3CCC4c5nc(OCc6ccc(C7COC7)cc6F)ccc5COCC4C3)n(C[C@@H]3CCO3)c2c1` (single isomer, unassigned) [Compound 12-B], the half-life at 1 μM in series [1] worked out at 1.2 h. Moreover, on Human GLP-1R, the response was half-maximal at 0.1 nM (EC50).
The compound `N#CCC1(Cn2c(Cc3ccc(-c4cccc(OCc5ccc(C6COC6)cc5F)n4)cc3F)nc3ccc(C(=O)O)cc32)CC1` [Compound 8, 1-((1-(cyanomethyl)cyclopropyl)methyl)-2-(2-fluoro-4-(6-((2-fluoro-4-(oxetan-3-yl)benzyl)oxy)pyridin-2-yl)benzyl)-1H-benzo[d]imidazole-6-carboxylic acid] came in with an EC50 at Human GLP-1R of 0.02 nM.
Turning to `O=C(O)c1ccc2nc(CN3CCC4=C(COCc5ccc(OCc6ccc(C7COC7)cc6F)nc54)C3)n(C[C@@H]3CCO3)c2c1` [Compound 7, (S)-2-((2-((2-fluoro-4-(oxetan-3-yl)benzyl)oxy)-5,8,10,11-tetrahydro-oxepino[4,3-b: 6,5-c′]dipyridin-9(7H)-yl)methyl)-1-(oxetan-2-ylmethyl)-1H-benzo[d]imidazole-6-carboxylic acid], the half-life at 1 μM in series [1] was 1.74 h. The same compound had an EC50 at Human GLP-1R of 0.1 nM.
The compound `O=C(O)c1ccc2nc(CN3CCC(c4cccc(OCc5ccc(C6(F)COC6)cc5F)n4)CC3)n(C[C@@H]3CCO3)c2c1` [Compound 15, (S)-2-((4-(6-((2-fluoro-4-(3-fluoroxetan-3-yl)benzyl)oxy)pyridin-2-yl)piperidin-1-yl)methyl)-1-(oxetan-2-ylmethyl)-1H-benzo[d]imidazole-6-carboxylic acid] came in with a concentration giving a half-maximal response (EC50) on Human GLP-1R of 0.08 nM.
On to `COc1cc(C2COC2)ccc1COc1cccc(C2CCN(Cc3nc4ccc(C(=O)O)cc4n3C[C@@H]3CCO3)CC2)n1` [Compound 3, (S)-2-((4-(6-((2-methoxy-4-(oxetan-3-yl)benzyl)oxy)pyridin-2-yl)piperidin-1-yl)methyl)-1-(oxetan-2-ylmethyl)-1H-benzo[d]imidazole-6-carboxylic acid], for which, in series [1], the half-life at 1 μM amounted to 2.56 h. In addition, the EC50 on Human GLP-1R came to 0.03 nM.
`O=C(O)c1ccc2nc(CN3CCC(c4cccc(OCc5ccc(C6COC6)cc5F)n4)CC3)n(CC3(F)CCC3)c2c1` [Compound 9, 2-((4-(6-((2-fluoro-4-(oxetan-3-yl)benzyl)oxy)pyridin-2-yl)piperidin-1-yl)methyl)-1-((1-fluorocyclobutyl)methyl)-1H-benzo[d]imidazole-6-carboxylic acid] gave an EC50 at Human GLP-1R of 0.39 nM. This lies in the sub-nanomolar range.
On to `N#CCC1(Cn2c(CN3CCC(c4cccc(OCc5ccc(C6COC6)cc5F)n4)CC3)nc3ccc(C(=O)O)cc32)CC1` [Compound 4, 1-((1-(cyanomethyl)cyclopropyl)methyl)-2-((4-(6-((2-fluoro-4-(oxetan-3-yl)benzyl)oxy)pyridin-2-yl)piperidin-1-yl)methyl)-1H-benzo[d]imidazole-6-carboxylic acid], for which, at Human GLP-1R, the EC50 is 0.08 nM. This EC50 lies about 4.9-fold lower than the previous one.
In series [1], `O=C(O)c1ccc2nc(Cc3ccc(-c4cccc(OCc5ccc(C6COC6)cc5F)n4)cc3F)n(C[C@@H]3CCO3)c2c1` [Compound 11, (S)-2-(2-fluoro-4-(6-((2-fluoro-4-(oxetan-3-yl)benzyl)oxy)pyridin-2-yl)benzyl)-1-(oxetan-2-ylmethyl)-1H-benzo[d]imidazole-6-carboxylic acid] registered a half-life at 1 μM of 1.05 h. In addition, on Human GLP-1R, the 50% effective concentration (EC50) is 0.011 nM.
In turn, `O=C(O)c1ccc2nc(CN3CCC(c4cccc(OCc5ccc(C6COC6)cn5)n4)CC3)n(C[C@@H]3CCO3)c2c1` [Compound 6, (S)-1-(oxetan-2-ylmethyl)-2-((4-(6-((5-(oxetan-3-yl)pyridin-2-yl)methoxy)pyridin-2-yl)piperidin-1-yl)methyl)-1H-benzo[d]imidazole-6-carboxylic acid] had a half-life at 1 μM in series [1] of 0.717 h. Further, the midpoint of the response on Human GLP-1R, the EC50, lay at 0.7 nM.
